Series [1] concerns human mesenchymal stem cells (hMSCs). Briefly: MTS assay on hMSCs. It is filed as cell-based. The note with it: nM concentration. The procedure:
complex. Supplementary Figure 5. […]
here as reference for BRD4 inhibitory activity. […] NA=
1 hour incubation with liver microsomes. C.
ULK3 rendered in Pymol (Schrodinger Inc.) at a 2.8 Å resolution. D. Table summarizing hULK3-MA9060 crystallographic data collection and refinement statistics. E. MA9060 is a dual inhibitor, able to decrease both ULK3 and MYC protein levels in MYC-dependent MM1.S MM cells. JQ1 is here included as the control for […]
mesenchymal stem cells (hMSCs) at 24 (G) and 48 (H) hours.
For orientation: Tetrazolium dyes change colour on reduction, which living cells bring about.

The target of a further series is T1, ULK1 (Homo sapiens, UniProt O75385).
T1 construct: purchased Reaction Biology Corporation
T1 sequence (O75385 1-1050): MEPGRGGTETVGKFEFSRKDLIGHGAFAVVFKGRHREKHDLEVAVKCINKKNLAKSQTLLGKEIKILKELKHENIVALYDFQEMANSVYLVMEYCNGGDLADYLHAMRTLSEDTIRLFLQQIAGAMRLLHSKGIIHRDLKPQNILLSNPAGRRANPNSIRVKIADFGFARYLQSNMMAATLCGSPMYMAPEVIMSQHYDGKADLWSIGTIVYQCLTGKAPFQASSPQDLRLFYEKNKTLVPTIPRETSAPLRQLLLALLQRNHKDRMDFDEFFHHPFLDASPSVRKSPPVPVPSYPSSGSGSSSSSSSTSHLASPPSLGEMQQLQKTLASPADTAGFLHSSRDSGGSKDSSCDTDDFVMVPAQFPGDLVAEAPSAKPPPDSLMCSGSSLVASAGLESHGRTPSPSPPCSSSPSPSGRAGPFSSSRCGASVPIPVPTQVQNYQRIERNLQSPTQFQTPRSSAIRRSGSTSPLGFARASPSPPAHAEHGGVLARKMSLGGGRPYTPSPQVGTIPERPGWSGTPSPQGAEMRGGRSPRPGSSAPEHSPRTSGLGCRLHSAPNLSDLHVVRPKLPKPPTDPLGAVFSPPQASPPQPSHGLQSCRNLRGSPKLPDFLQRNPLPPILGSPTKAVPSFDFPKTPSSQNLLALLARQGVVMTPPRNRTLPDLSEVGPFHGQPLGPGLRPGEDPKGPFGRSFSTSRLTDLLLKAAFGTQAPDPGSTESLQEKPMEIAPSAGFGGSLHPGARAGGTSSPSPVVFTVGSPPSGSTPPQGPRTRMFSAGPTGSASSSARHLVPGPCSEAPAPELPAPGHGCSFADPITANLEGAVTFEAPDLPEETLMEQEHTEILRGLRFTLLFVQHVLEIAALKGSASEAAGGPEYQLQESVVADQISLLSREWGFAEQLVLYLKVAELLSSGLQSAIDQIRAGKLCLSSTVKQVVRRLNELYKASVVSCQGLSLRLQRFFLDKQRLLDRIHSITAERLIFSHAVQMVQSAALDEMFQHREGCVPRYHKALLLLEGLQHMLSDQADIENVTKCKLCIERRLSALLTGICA
Nature of the series: Kinase profiling assay (Reaction Biology), 10-dose IC50, 10 μM ATP. It is filed as biochemical. Here is the method: (§1) 310 and refinement were performed with COOT [14] and Phenix.Refine to obtain a clear electron
(§2) 311 density map (1Fo-Fc) for compound MA9-060, which was built into the structure near the end of
(§3) 312 iterative cycles of model building and refinement. Crystal parameters, data collection statistics and
(§4) 313 refinement statistics are summarized in Supplementary Fig. 4D and deposited in the protein
(§5) 314 databank with PDB code 8V1M.
(§6) 317 The compounds under investigation were tested by Reaction Biology Corporation against four
(§7) 318 specific kinases in this study (JAK2, ULK1, ULK2, ULK3). Each compound was provided as a
(§8) 319 10 mM stock solution. To facilitate dissolution, the compounds were subjected to gentle heating.
(§9) 320 Subsequent testing involved the evaluation of the compounds using a 10-dose IC50 mode,
(§10) Additionally, the control compound,
(§11) Throughout these experiments, reactions were conducted using a standardized concentration
(§12) 325 The data collected during these assays encompass raw data, % enzyme activity (relative to DMSO
(§13) 327 activities at the highest concentration of compounds were less than 65%. The IC50 summary,
(§14) 328 detailing the inhibitory concentrations of the compounds against the respective kinases, is
(§15) 331 Bromodomain profiling assay
(§16) 333 evaluated against Bromodomain 1 by Reaction Biology Corporation.
(§17) 334 The compounds were subjected to testing using a 10-dose IC50 singlet approach, involving a 3-
(§18) 335 fold serial dilution starting at 10 μM, specifically against BRD4-1. Additionally, as a benchmark,
(§19) 337 dilution starting at 10 μM.
(§20) 338 For ligand and detection purposes, the H4/4Ac ligand, representing the Histone H4 peptide (1-21)
(§21) 339 with acetylation at lysine residues K5, K8, K12, and K16, and tagged with Biotin, was utilized.

The target in another series is T2, ULK2 (Homo sapiens, UniProt Q8IYT8).
T2 construct: purchased Reaction Biology Corporation
T2 sequence (Q8IYT8 1-1036): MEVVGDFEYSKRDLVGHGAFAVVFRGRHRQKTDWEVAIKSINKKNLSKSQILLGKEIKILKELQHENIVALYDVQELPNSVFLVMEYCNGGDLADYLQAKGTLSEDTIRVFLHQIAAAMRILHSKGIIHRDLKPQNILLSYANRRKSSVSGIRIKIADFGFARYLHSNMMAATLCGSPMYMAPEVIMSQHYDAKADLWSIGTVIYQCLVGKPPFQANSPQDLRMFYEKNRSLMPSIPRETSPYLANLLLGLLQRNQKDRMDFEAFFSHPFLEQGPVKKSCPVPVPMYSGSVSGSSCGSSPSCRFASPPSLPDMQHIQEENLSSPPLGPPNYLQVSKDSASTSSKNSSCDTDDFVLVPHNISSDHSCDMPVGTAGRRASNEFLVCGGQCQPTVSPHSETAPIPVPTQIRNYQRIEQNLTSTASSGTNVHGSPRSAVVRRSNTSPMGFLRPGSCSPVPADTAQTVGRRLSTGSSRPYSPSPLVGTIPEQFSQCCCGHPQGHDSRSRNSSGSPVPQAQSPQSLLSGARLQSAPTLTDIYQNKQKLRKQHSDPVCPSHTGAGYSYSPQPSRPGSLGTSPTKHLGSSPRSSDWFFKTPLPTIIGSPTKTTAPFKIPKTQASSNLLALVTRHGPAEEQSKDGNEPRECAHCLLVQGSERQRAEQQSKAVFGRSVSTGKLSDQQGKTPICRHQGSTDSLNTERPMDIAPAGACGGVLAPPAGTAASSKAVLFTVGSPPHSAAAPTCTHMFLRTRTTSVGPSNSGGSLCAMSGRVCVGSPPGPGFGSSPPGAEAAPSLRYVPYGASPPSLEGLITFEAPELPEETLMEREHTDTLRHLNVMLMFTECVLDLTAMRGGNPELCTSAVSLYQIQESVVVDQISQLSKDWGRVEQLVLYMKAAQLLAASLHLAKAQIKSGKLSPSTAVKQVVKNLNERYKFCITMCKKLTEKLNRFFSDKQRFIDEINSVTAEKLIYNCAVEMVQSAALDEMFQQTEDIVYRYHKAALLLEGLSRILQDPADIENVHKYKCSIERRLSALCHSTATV
The description is as above. The following applies: NA = no activity. Type of series: biochemical. Here is the method:
as §1, §2, §3, §4, §5, §6, §7, §8, §9, §10, §11, §12, §13, §14, §15, §16, §17, §18, §19, §20, §21

SMILES strings stand for the structures.

One may read the IC50 as the concentration at which inhibition is half-maximal. Take `Cc1cnc(Nc2ccc(C3CCN(C)CC3)c(F)c2)nc1Nc1ccc(Cl)c(NS(=O)(=O)C(C)(C)C)c1` [MA9060]: in series [1], the “toxicity to normal primary human MSCs” value is “not toxic”. Further, the IC50 against ULK1 amounted to 1710 nM; against ULK2, 4300 nM.

For the origin of these results see article PMC12363935, “Unc-51 Like Kinase 3 (ULK3) is essential for autophagy and cell survival in multiple myeloma” (Research Square, 2025).
